Converted amounts (≈) assume the structure as drawn. Like-named read-outs stand apart in the source and are kept apart here.
Columns and labels:
[1] = Solubility in water at 30°C of carboxyl group-containing compounds; conditions: for solubility: distilled water, 30 °C, water, thermodynamic from solid

| solubility [1] [mg/mL] | Compound | further results |
| --- | --- | --- |
| 20 (≈ 95.2 mM) | O=C(O)c1ccc(C(=O)O)c(C(=O)O)c1 [trimellitic acid] | – |
| 9 (≈ 54.2 mM) | O=C(O)c1ccccc1C(=O)O [phthalic acid] | – |

The next lines start with the compound.

| Compound | solubility [1] [mg/mL] | further results |
| --- | --- | --- |
| O=C(O)/C=C\C(=O)O [maleic acid] | 800 (≈ 6890 mM) | – |
| tetrahydrophthalic acid | – | solubility in water (30°C): 5 mg/mL |
| O=C(O)C1CCC(C(=O)O)C(C(=O)O)C1 (stereo not drawn) [hydrogenated trimellitic acid] | – | solubility in water (30°C) ([1]; weight of solute per 1 L of distilled water in a saturated aqueous solution at 30°C): 300 mg/mL (≈ 1390 mM) |
| O=C(O)C1CCCCC1C(=O)O (stereo not drawn) [hexahydrophthalic acid] | 1.5 (≈ 8.71 mM) | – |
